Source: patent US5409947A, “Cycloheptimidazole derivatives, method of manufacturing the same and therapeutic agents containing these compounds” (Kotobuki Seiyaku Co., Ltd., priority 1992, dated 1995)
Structures can show the parent of a compound that is named as a salt.

Biological target: T1, angiotensin II receptor (Oryctolagus cuniculus, UniProt P34976)
T1 construct: Rabbit aorta thoracic is isolated; from tissue; host or cells: isolated rabbit thoracic aorta
T1 sequence (P34976 1-359): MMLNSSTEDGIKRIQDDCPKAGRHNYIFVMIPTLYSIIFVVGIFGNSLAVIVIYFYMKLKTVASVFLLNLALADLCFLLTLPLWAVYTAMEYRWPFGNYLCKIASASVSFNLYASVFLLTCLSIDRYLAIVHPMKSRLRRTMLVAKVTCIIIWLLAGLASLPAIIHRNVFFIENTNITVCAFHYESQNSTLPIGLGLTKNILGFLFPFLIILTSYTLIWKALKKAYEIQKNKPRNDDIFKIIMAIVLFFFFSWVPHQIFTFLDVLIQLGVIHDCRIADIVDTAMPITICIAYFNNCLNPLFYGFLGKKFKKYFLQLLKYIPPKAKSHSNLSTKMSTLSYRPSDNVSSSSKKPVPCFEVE
Assay: Angiotensin II receptor antagonistic activity: inhibition of angiotensin II-induced contraction of isolated rabbit thoracic aorta
Format: cell-based
Details: isolated rabbit thoracic aorta contracted by angiotensin II, from dose-response curve (Schild); for Kb: read-out: pA2 (converted)
Excerpt: Angiotensin II receptor antagonistic activity experiments are carded out according to P. C. Wong et al. (Hypertension. 15, 823 (1990)).
Rabbit aorta thoracic is isolated, contracted by angiotensin II. The inhibition of contraction by the compound (1) is expressed as pA2 from dose-response curve (Schild, Brit. J. Pharmacol. 14, 48 (1959)).

CCCCc1nc2c(n1Cc1ccc(-c3ccccc3-c3nn[nH]n3)cc1)C(=O)CCCC2 [18 - K salt]
Kb: 0.316 nM

Cc1nc2ccccc(=O)c2n1Cc1ccc(-c2ccccc2-c2nn[nH]n2)cc1 [Compound 1, 5-[2-(4-(2-Methyl-8-oxo-1(8H)-cycloheptimidazolyl)methylbiphenylyl)]tetrazole]
pA2: 7.95

CCc1nc2ccccc(=O)c2n1Cc1ccc(-c2ccccc2-c2nn[nH]n2)cc1 [Compound 2, 5-[2-(4-(2-Ethyl-8-oxo-1(8H)-cycloheptimidazolyl)methylbiphenylyl)]tetrazole]
Kb: 2 nM

CCCc1nc2ccccc(=O)c2n1Cc1ccc(-c2ccccc2-c2nn[nH]n2)cc1 [Compound 3, 5-[2-(4-(2-Propyl-8-oxo-1(8H)-cycloheptimidazolyl)methylbiphenylyl)]tetrazole]
Kb: 0.331 nM

CCCCc1nc2ccccc(=O)c2n1Cc1ccc(-c2ccccc2-c2nn[nH]n2)cc1 [Compound 4, 5-[2-(4-(2-Butyl-8-oxo-1(8H )-cycloheptimidazolyl)methylbiphenylyl)]tetrazole]
Kb: 0.501 nM

CC(C)c1nc2ccccc(=O)c2n1Cc1ccc(-c2ccccc2-c2nn[nH]n2)cc1 [Compound 9, 5-[2-(4-(2-Isopropyl-8-oxo-1(8H)-cycloheptimidazolyl)methylbiphenylyl)]tetrazole]
Kb: 7.59 nM

CCCCc1nc2c(n1Cc1ccc(-c3ccccc3-c3nn[nH]n3)cc1)CCCCC2 [Compound 11, 5-[2-(4-(2-Butyl-1,4,5,6,7,8-hexahydro-1-cycloheptimidazolyl)methylbiphenylyl)]tetrazole]
Kb: 20 nM

Cc1nc2c(n1Cc1ccc(-c3ccccc3-c3nn[nH]n3)cc1)C(=O)CCCC2 [Compound 15, 5-[2-(4-(2-Methyl-8-oxo-5,6,7,8-tetrahydro-1-cycloheptimidazolyl)methylbiphenylyl)]tetrazole]
Kb: 5.01 nM

CCc1nc2c(n1Cc1ccc(-c3ccccc3-c3nn[nH]n3)cc1)C(=O)CCCC2 [Compound 16, 5-[2-(4-(2-Ethyl-8-oxo-5,6,7,8-tetrahydro-1-cycloheptimidazolyl)methylbiphenylyl)]tetrazole]
Kb: 1 nM

CCCc1nc2c(n1Cc1ccc(-c3ccccc3-c3nnn[nH]3)cc1)C(=O)CCCC2 [Compound 17, 5-[2-(4-(2-Propyl-8-oxo-5,6,7,8-tetrahydro-1-cycloheptimidazolyl)methylbiphenylyl)]tetrazole]
Kb: 0.126 nM

CCCCc1nc2c(n1Cc1ccc(-c3ccccc3-c3nn[nH]n3)cc1)C(=O)CCCC2 [Compound 18, 5-[2-(4-(2-Butyl-8-oxo-5,6,7,8-tetrahydro-1-cycloheptimidazolyl)methylbiphenylyl)]tetrazole]
Kb: 0.501 nM

CCCCCc1nc2c(n1Cc1ccc(-c3ccccc3-c3nn[nH]n3)cc1)C(=O)CCCC2 [Compound 19, 5-[2-(4-(2-Pentyl-8-oxo-5,6,7,8-tetrahydro-1-cycloheptimidazolyl)methylbiphenylyl)]tetrazole]
Kb: 0.398 nM

CCCCc1nc2c(n1Cc1ccc(-c3ccccc3-c3nn[nH]n3)cc1)CCCCC2=O [Compound 20, 5-[2-(4-(2-Butyl-4-oxo-5,6,7,8-tetrahydro-1-cycloheptimidazolyl)methylbiphenylyl)]tetrazole]
Kb: 63.1 nM

CC(C)c1nc2c(n1Cc1ccc(-c3ccccc3-c3nn[nH]n3)cc1)C(=O)CCCC2 [Compound 24]
Kb: 1.78 nM

CC(C)Cc1nc2c(n1Cc1ccc(-c3ccccc3-c3nn[nH]n3)cc1)C(=O)CCCC2 [Compound 25]
Kb: 0.851 nM

CCCCc1nc2c(n1Cc1ccc(-c3ccccc3-c3nn[nH]n3)cc1)C(O)CCCC2 (centres unmarked) [Compound 26, 5-[2-(4-(2-Butyl-8-hydroxy-1,4,5,6,7,8-hexahydro-1-cycloheptimidazolyl)methylbiphenylyl)]tetrazole]
Kb: 9.77 nM

CCCCc1nc2c(n1Cc1ccc(-c3ccccc3-c3nn[nH]n3)cc1)CCCCC2O (centres unmarked) [Compound 27, 5-[2-(4-(2-Butyl-4-hydroxy-1,4,5,6,7,8-hexahydro-1-cycloheptimidazolyl)methylbiphenylyl)]tetrazole]
Kb: 63.1 nM
